System: carrageenan-induced rat paw edema
Assay: carrageenan-induced rat paw edema assay
Format: in vivo
Details: oral doses of 50 mg/kg

| SMILES | inhibition of edema |
| --- | --- |
| CCOC(=O)C1=C(O)COC1=Nc1ccccc1 [Example 1, potassium 2,5-dihydro-3-ethoxycarbonyl-2-(phenylimino)-4-furanyloxide] | 31% |
| CCOC(=O)C1=C(O)COC1=Nc1cccc([N+](=O)[O-])c1 [Example 4, potassium 2,5-dihydro-3-ethoxycarbonyl-2-[(3-nitrophenyl)imino]-4-furanyloxide] | 28.3% |

— patent US4730063A, “Alkali metal 2,5-dihydro-3-ethoxycarbonyl-2-[(substituted phenyl)amino]-4-furanyloxides” (Pennwalt Corportion, priority 1986, dated 1988)
